ChEMBL document CHEMBL3611986, “Reversal of P-gp and BCRP-mediated MDR by tariquidar derivatives” (Eur J Med Chem, 2015)

Test system: HCT-116
Assay: Cytotoxicity against human HCT116 cells assessed as cell viability after 48 hrs by MTT assay
Assay type: cell-based
Conditions: HCT-116, 48 h; call rule not given here

Structure (SMILES)	IC50 [µM]
COc1cc2c(cc1OC)CN(CCc1ccc(NC(=O)c3ccccc3NS(=O)(=O)c3ccc(Cl)cc3)cc1)CC2	> 100
COc1cc2c(cc1OC)CN(CCc1ccc(NC(=O)c3ccccc3NS(=O)(=O)c3cccc4c(N(C)C)cccc34)cc1)CC2	> 100
COc1ccc(S(=O)(=O)Nc2ccccc2C(=O)Nc2ccc(CCN3CCc4cc(OC)c(OC)cc4C3)cc2)cc1	> 100
COc1cc2c(cc1OC)CN(CCc1ccc(NC(=O)c3ccccc3NS(=O)(=O)c3ccccc3C(F)(F)F)cc1)CC2	> 100
COc1cc2c(cc1OC)CN(CCc1ccc(NC(=O)c3ccccc3NC(=O)OCC3c4ccccc4-c4ccccc43)cc1)CC2	> 100
COc1cc2c(cc1OC)CN(CCc1ccc(NC(=O)c3cc(OC)c(OC)cc3NS(=O)(=O)c3ccc(C(C)(C)C)cc3)cc1)CC2	> 100
COc1cc2c(cc1OC)CN(CCc1ccc(NC(=O)c3ccccc3NS(=O)(=O)c3ccc(NC(C)=O)cc3)cc1)CC2	> 100
COc1cc2c(cc1OC)CN(CCc1ccc(NC(=O)c3ccccc3NS(=O)(=O)c3cc(Cl)ccc3Cl)cc1)CC2	25

Test system: SW-620
Assay: Cytotoxicity against human SW620 cells assessed as cell viability after 48 hrs by MTT assay
Assay type: cell-based
Conditions: SW-620, 48 h

Structure (SMILES)	IC50 [µM]
COc1cc2c(cc1OC)CN(CCc1ccc(NC(=O)c3ccccc3NS(=O)(=O)c3ccc(Cl)cc3)cc1)CC2	> 100
COc1cc2c(cc1OC)CN(CCc1ccc(NC(=O)c3ccccc3NS(=O)(=O)c3cccc4c(N(C)C)cccc34)cc1)CC2	> 100
COc1ccc(S(=O)(=O)Nc2ccccc2C(=O)Nc2ccc(CCN3CCc4cc(OC)c(OC)cc4C3)cc2)cc1	> 100
COc1cc2c(cc1OC)CN(CCc1ccc(NC(=O)c3ccccc3NS(=O)(=O)c3ccccc3C(F)(F)F)cc1)CC2	> 100
COc1cc2c(cc1OC)CN(CCc1ccc(NC(=O)c3ccccc3NC(=O)OCC3c4ccccc4-c4ccccc43)cc1)CC2	> 100
COc1cc2c(cc1OC)CN(CCc1ccc(NC(=O)c3cc(OC)c(OC)cc3NS(=O)(=O)c3ccc(C(C)(C)C)cc3)cc1)CC2	> 100
COc1cc2c(cc1OC)CN(CCc1ccc(NC(=O)c3ccccc3NS(=O)(=O)c3ccc(NC(C)=O)cc3)cc1)CC2	> 100
COc1cc2c(cc1OC)CN(CCc1ccc(NC(=O)c3ccccc3NS(=O)(=O)c3cc(Cl)ccc3Cl)cc1)CC2	> 100

Test system: not listed separately
Assay: Cytotoxicity against human SW620/AD300 cells assessed as cell viability after 48 hrs by MTT assay
Assay type: cell-based
Conditions: SW-620, 48 h

Structure (SMILES)	IC50 [µM]
COc1cc2c(cc1OC)CN(CCc1ccc(NC(=O)c3ccccc3NS(=O)(=O)c3ccc(Cl)cc3)cc1)CC2	> 100
COc1cc2c(cc1OC)CN(CCc1ccc(NC(=O)c3ccccc3NS(=O)(=O)c3cccc4c(N(C)C)cccc34)cc1)CC2	> 100
COc1ccc(S(=O)(=O)Nc2ccccc2C(=O)Nc2ccc(CCN3CCc4cc(OC)c(OC)cc4C3)cc2)cc1	> 100
COc1cc2c(cc1OC)CN(CCc1ccc(NC(=O)c3ccccc3NS(=O)(=O)c3ccccc3C(F)(F)F)cc1)CC2	> 100
COc1cc2c(cc1OC)CN(CCc1ccc(NC(=O)c3ccccc3NC(=O)OCC3c4ccccc4-c4ccccc43)cc1)CC2	> 100
COc1cc2c(cc1OC)CN(CCc1ccc(NC(=O)c3cc(OC)c(OC)cc3NS(=O)(=O)c3ccc(C(C)(C)C)cc3)cc1)CC2	> 100
COc1cc2c(cc1OC)CN(CCc1ccc(NC(=O)c3ccccc3NS(=O)(=O)c3ccc(NC(C)=O)cc3)cc1)CC2	> 100
COc1cc2c(cc1OC)CN(CCc1ccc(NC(=O)c3ccccc3NS(=O)(=O)c3cc(Cl)ccc3Cl)cc1)CC2	> 100

Test system: not listed separately
Assay: Cytotoxicity against human CCD-18Co cells assessed as cell viability after 48 hrs by MTT assay
Assay type: cell-based
Conditions: not given

Structure (SMILES)	IC50 [µM]
COc1cc2c(cc1OC)CN(CCc1ccc(NC(=O)c3ccccc3NS(=O)(=O)c3ccc(Cl)cc3)cc1)CC2	> 100
COc1cc2c(cc1OC)CN(CCc1ccc(NC(=O)c3ccccc3NS(=O)(=O)c3cccc4c(N(C)C)cccc34)cc1)CC2	> 100
COc1ccc(S(=O)(=O)Nc2ccccc2C(=O)Nc2ccc(CCN3CCc4cc(OC)c(OC)cc4C3)cc2)cc1	> 100
COc1cc2c(cc1OC)CN(CCc1ccc(NC(=O)c3ccccc3NS(=O)(=O)c3ccccc3C(F)(F)F)cc1)CC2	> 100
COc1cc2c(cc1OC)CN(CCc1ccc(NC(=O)c3ccccc3NC(=O)OCC3c4ccccc4-c4ccccc43)cc1)CC2	> 100
COc1cc2c(cc1OC)CN(CCc1ccc(NC(=O)c3cc(OC)c(OC)cc3NS(=O)(=O)c3ccc(C(C)(C)C)cc3)cc1)CC2	> 100
COc1cc2c(cc1OC)CN(CCc1ccc(NC(=O)c3ccccc3NS(=O)(=O)c3ccc(NC(C)=O)cc3)cc1)CC2	> 100
COc1cc2c(cc1OC)CN(CCc1ccc(NC(=O)c3ccccc3NS(=O)(=O)c3cc(Cl)ccc3Cl)cc1)CC2	> 100

Test system: not listed separately
Assay: Cytotoxicity against human HFE cells assessed as cell viability after 72 hrs by MTT assay
Assay type: cell-based
Conditions: not given

Structure (SMILES)	IC50 [µM]
COc1cc2c(cc1OC)CN(CCc1ccc(NC(=O)c3ccccc3NS(=O)(=O)c3ccc(Cl)cc3)cc1)CC2	> 5
COc1cc2c(cc1OC)CN(CCc1ccc(NC(=O)c3ccccc3NS(=O)(=O)c3cccc4c(N(C)C)cccc34)cc1)CC2	> 100
COc1ccc(S(=O)(=O)Nc2ccccc2C(=O)Nc2ccc(CCN3CCc4cc(OC)c(OC)cc4C3)cc2)cc1	> 100
COc1cc2c(cc1OC)CN(CCc1ccc(NC(=O)c3ccccc3NS(=O)(=O)c3ccccc3C(F)(F)F)cc1)CC2	> 100
COc1cc2c(cc1OC)CN(CCc1ccc(NC(=O)c3ccccc3NC(=O)OCC3c4ccccc4-c4ccccc43)cc1)CC2	> 100
COc1cc2c(cc1OC)CN(CCc1ccc(NC(=O)c3cc(OC)c(OC)cc3NS(=O)(=O)c3ccc(C(C)(C)C)cc3)cc1)CC2	> 5
COc1cc2c(cc1OC)CN(CCc1ccc(NC(=O)c3ccccc3NS(=O)(=O)c3ccc(NC(C)=O)cc3)cc1)CC2	> 100
COc1cc2c(cc1OC)CN(CCc1ccc(NC(=O)c3ccccc3NS(=O)(=O)c3cc(Cl)ccc3Cl)cc1)CC2	> 100

Test system: Hepatocyte
Assay: Cytotoxicity against rat hepatocytes assessed as cell viability after 72 hrs by MTT assay
Assay type: cell-based
Conditions: Rattus norvegicus, Hepatocyte

Structure (SMILES)	IC50 [µM]
COc1cc2c(cc1OC)CN(CCc1ccc(NC(=O)c3ccccc3NS(=O)(=O)c3ccccc3C(F)(F)F)cc1)CC2	100

Molecular target: T1, ATP-dependent translocase ABCB1 (Homo sapiens, UniProt P08183)
Assay: Inhibition of p-glycoprotein-mediated rhodamine-123 efflux in human K562/p-gp cells at 0.5 uM after 1 hr by flow cytometry relative to tariquidar
Assay type: cell-based
Conditions: 1 h, 0.5 µM

T1 sequence (P08183 whole entry): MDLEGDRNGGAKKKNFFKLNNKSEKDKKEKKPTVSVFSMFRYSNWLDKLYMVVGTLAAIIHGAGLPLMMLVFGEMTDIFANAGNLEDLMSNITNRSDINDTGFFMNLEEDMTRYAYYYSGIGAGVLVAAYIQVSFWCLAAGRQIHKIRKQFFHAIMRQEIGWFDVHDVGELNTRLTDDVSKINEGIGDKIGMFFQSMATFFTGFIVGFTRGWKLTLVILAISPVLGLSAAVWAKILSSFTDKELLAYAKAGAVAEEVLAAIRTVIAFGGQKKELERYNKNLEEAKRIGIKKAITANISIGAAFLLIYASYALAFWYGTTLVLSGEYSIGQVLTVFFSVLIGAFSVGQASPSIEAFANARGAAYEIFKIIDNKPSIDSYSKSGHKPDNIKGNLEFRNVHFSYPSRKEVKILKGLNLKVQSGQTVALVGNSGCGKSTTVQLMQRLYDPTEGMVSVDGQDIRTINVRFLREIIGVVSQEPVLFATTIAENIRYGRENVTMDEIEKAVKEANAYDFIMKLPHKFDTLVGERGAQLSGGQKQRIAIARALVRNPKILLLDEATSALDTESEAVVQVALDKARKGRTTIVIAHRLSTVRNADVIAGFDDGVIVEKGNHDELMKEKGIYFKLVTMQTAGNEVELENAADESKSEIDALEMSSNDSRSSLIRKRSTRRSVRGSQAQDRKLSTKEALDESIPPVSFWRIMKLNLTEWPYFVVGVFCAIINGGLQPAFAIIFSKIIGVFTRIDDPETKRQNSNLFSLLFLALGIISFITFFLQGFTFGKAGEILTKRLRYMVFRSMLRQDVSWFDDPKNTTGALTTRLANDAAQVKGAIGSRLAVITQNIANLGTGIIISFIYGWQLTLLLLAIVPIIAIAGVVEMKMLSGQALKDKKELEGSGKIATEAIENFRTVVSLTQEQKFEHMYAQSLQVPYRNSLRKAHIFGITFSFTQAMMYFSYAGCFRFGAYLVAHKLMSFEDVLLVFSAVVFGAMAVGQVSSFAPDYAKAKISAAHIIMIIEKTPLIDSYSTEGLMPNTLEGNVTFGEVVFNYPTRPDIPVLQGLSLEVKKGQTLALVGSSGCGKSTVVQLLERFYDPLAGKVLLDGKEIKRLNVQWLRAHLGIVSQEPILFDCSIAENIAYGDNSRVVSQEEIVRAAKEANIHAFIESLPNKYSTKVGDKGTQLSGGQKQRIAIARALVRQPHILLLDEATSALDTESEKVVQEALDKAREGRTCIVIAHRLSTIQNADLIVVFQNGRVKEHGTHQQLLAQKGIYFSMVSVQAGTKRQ

Structure (SMILES)	inhibition (INH)
COc1cc2c(cc1OC)CN(CCc1ccc(NC(=O)c3cc(OC)c(OC)cc3NS(=O)(=O)c3ccc(C(C)(C)C)cc3)cc1)CC2	Active

Molecular target: T1, ATP-dependent translocase ABCB1
Assay: Inhibition of p-glycoprotein-mediated rhodamine-123 efflux in human K562/p-gp cells after 1 hr by flow cytometry
Assay type: cell-based
Conditions: not given

Structure (SMILES)	inhibition (INH)
COc1cc2c(cc1OC)CN(CCc1ccc(NC(=O)c3cc(OC)c(OC)cc3NS(=O)(=O)c3ccc(C(C)(C)C)cc3)cc1)CC2	Dose-dependent effect

Test system: K562
Assay: Effect on rhodamine-123 efflux in wild type human K562 cells at 0.5 uM after 1 hr by flow cytometry
Assay type: ADME, cell-based
Conditions: k562, 1 h

Structure (SMILES)	Activity
COc1cc2c(cc1OC)CN(CCc1ccc(NC(=O)c3cc(OC)c(OC)cc3NS(=O)(=O)c3ccc(C(C)(C)C)cc3)cc1)CC2	Non-toxic

Molecular target: Multidrug resistance-associated protein 1 (Homo sapiens, UniProt P33527)
Assay: Inhibition of MRP1 (unknown origin)-mediated calcein-AM efflux expressed in HEK293/MRP1 cells at 0.5 uM after 1 hr by flow cytometry
Assay type: cell-based
Conditions: hek293/mrp1, 1 h

Sequence of Multidrug resistance-associated protein 1 (P33527 whole entry): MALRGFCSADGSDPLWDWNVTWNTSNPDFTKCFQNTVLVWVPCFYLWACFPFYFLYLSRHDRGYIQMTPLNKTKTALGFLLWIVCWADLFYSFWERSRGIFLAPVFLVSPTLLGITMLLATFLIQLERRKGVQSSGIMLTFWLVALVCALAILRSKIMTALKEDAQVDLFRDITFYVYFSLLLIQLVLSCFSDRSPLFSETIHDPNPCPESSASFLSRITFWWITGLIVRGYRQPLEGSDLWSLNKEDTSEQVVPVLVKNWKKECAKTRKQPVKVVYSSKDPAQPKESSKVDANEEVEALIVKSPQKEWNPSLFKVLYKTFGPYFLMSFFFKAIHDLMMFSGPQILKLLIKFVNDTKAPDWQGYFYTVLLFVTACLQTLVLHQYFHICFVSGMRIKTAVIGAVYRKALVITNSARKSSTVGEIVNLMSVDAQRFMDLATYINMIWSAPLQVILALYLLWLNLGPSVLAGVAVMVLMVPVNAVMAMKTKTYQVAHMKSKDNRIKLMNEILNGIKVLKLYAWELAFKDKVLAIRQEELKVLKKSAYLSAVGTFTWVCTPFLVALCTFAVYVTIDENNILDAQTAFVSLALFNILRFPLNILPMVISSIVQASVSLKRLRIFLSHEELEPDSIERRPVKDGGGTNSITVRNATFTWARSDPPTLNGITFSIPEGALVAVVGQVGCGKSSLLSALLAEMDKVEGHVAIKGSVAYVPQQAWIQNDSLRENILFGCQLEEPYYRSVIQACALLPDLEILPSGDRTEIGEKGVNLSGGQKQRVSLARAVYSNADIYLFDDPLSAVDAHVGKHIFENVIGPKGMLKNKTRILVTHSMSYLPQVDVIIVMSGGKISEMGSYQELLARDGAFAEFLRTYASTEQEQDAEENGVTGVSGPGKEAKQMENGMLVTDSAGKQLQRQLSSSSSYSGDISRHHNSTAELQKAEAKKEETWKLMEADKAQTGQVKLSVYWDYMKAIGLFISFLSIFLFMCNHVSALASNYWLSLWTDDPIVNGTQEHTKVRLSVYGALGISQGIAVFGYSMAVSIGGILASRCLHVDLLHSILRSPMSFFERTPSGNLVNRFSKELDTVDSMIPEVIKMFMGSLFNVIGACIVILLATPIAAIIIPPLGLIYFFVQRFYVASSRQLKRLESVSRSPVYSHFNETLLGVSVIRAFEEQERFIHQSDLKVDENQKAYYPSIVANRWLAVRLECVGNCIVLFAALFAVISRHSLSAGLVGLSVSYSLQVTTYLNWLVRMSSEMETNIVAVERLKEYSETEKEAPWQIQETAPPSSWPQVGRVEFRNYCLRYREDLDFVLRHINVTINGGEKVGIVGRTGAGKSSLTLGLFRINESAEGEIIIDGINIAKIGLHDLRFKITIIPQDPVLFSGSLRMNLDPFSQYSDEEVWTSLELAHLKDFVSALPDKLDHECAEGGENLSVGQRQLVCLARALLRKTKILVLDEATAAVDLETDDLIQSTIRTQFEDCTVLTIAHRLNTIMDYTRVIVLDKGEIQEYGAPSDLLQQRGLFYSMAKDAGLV

Structure (SMILES)	inhibition (INH)
COc1cc2c(cc1OC)CN(CCc1ccc(NC(=O)c3ccccc3NS(=O)(=O)c3cccc4c(N(C)C)cccc34)cc1)CC2	Not Active
COc1cc2c(cc1OC)CN(CCc1ccc(NC(=O)c3ccccc3NC(=O)OCC3c4ccccc4-c4ccccc43)cc1)CC2	Not Active
COc1cc2c(cc1OC)CN(CCc1ccc(NC(=O)c3ccccc3NS(=O)(=O)c3ccc(NC(C)=O)cc3)cc1)CC2	Not Active
COc1cc2c(cc1OC)CN(CCc1ccc(NC(=O)c3ccccc3NS(=O)(=O)c3cc(Cl)ccc3Cl)cc1)CC2	Not Active

Second part, the molecule after the results:

inhibition (INH)	Structure (SMILES)
Not Active	COc1ccc(S(=O)(=O)Nc2ccccc2C(=O)Nc2ccc(CCN3CCc4cc(OC)c(OC)cc4C3)cc2)cc1
Not Active	COc1cc2c(cc1OC)CN(CCc1ccc(NC(=O)c3ccccc3NS(=O)(=O)c3ccccc3C(F)(F)F)cc1)CC2
Not Active	COc1cc2c(cc1OC)CN(CCc1ccc(NC(=O)c3cc(OC)c(OC)cc3NS(=O)(=O)c3ccc(C(C)(C)C)cc3)cc1)CC2

Test system: not listed separately
Assay: Potentiation of paclitaxel-induced cytotoxicity against human LCC6 cells at 200 nM after 72 hrs by SRB assay relative to control
Assay type: functional
Conditions: not given

Structure (SMILES)	fold change (FC)
COc1cc2c(cc1OC)CN(CCc1ccc(NC(=O)c3cc(OC)c(OC)cc3NS(=O)(=O)c3ccc(C(C)(C)C)cc3)cc1)CC2	1

Molecular target: T1, ATP-dependent translocase ABCB1
Assay: Inhibition of p-glycoprotein in human LCC6/MDR cells assessed as increase of paclitaxel-induced cytotoxicity at 200 nM after 72 hrs by SRB assay relative to control
Assay type: cell-based
Conditions: 0.2 µM

Structure (SMILES)	fold change (FC)
COc1cc2c(cc1OC)CN(CCc1ccc(NC(=O)c3cc(OC)c(OC)cc3NS(=O)(=O)c3ccc(C(C)(C)C)cc3)cc1)CC2	21

Test system: not listed separately
Assay: Cytotoxicity against human LCC6 cells at 200 nM after 72 hrs by SRB assay
Assay type: cell-based
Conditions: lcc6, 72 h, 0.2 µM

Structure (SMILES)	Activity
COc1cc2c(cc1OC)CN(CCc1ccc(NC(=O)c3cc(OC)c(OC)cc3NS(=O)(=O)c3ccc(C(C)(C)C)cc3)cc1)CC2	Non-toxic

Test system: not listed separately
Assay: Cytotoxicity against human LCC6 cells expressing p-glycoprotein at 200 nM after 72 hrs by SRB assay
Assay type: cell-based
Conditions: lcc6, 72 h, 0.2 µM

Structure (SMILES)	Activity
COc1cc2c(cc1OC)CN(CCc1ccc(NC(=O)c3cc(OC)c(OC)cc3NS(=O)(=O)c3ccc(C(C)(C)C)cc3)cc1)CC2	Non-toxic

Test system: K562
Assay: Induction of UIC2 antibody binding to p-glycoprotein in human K562 cells at 0.5 uM preincubated for 10 mins followed by antibody addition measured after 45 mins by flow cytometry relative to tariquidar
Assay type: cell-based
Conditions: not given

Structure (SMILES)	Activity [%]
COc1cc2c(cc1OC)CN(CCc1ccc(NC(=O)c3cc(OC)c(OC)cc3NS(=O)(=O)c3ccc(C(C)(C)C)cc3)cc1)CC2	70.7

Organism: Homo sapiens
Assay: Inhibition of p-glycoprotein (unknown origin) expressed in High five insect cell membranes assessed as ATP hydrolysis after 20 mins by colorimetric ATPase assay
Conditions: not given

Structure (SMILES)	inhibition
COc1cc2c(cc1OC)CN(CCc1ccc(NC(=O)c3cc(OC)c(OC)cc3NS(=O)(=O)c3ccc(C(C)(C)C)cc3)cc1)CC2	Dose-dependent effect
